Experimental data from publication PMC7044277 (Nature Communications, 2020).
Where “and” joins values, the source holds several entries; their conditions need not be identical. Equal entries are not always repeated.

Legend:
Format in all cases: cell-based
[1] = target: T1, 320 non-olfactory GPCRs (Homo sapiens, UniProt P29275)
T1 construct: expressed in transfected cells; host or cells: HTLA cells

[2] = target: T2, 320 non-olfactory GPCRs (Homo sapiens, UniProt P35410); conditions: receptor MAS1L; replicate values, Fig_4g
T2 construct: expressed in transfected cells; host or cells: HTLA cells

[3] = target: 320 non-olfactory GPCRs (Homo sapiens, UniProt P41145); conditions: receptor OPRK1; replicate values, Fig_4g
[4] = target: 320 non-olfactory GPCRs (Homo sapiens, UniProt Q13258); conditions: receptor PTGDR; replicate values, Fig_4g
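Wherever Fold of Basal is given: compound tested at 1 µM final concentration.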
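Wherever GPCRome agonism screen response is given: fold over basal response of each receptor without drug.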

320 non-olfactory GPCRs (Homo sapiens, UniProt Q13258), sequence (Q13258 whole entry): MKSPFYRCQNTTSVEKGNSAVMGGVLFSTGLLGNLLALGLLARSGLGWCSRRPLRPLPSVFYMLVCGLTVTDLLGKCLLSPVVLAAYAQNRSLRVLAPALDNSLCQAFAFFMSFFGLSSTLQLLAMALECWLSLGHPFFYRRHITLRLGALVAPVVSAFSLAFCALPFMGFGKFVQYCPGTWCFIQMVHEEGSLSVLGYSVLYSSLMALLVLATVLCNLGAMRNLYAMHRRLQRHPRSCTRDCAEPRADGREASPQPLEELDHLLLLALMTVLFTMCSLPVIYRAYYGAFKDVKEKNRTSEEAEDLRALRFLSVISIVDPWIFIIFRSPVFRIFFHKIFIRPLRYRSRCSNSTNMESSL
T2 sequence (P35410 whole entry): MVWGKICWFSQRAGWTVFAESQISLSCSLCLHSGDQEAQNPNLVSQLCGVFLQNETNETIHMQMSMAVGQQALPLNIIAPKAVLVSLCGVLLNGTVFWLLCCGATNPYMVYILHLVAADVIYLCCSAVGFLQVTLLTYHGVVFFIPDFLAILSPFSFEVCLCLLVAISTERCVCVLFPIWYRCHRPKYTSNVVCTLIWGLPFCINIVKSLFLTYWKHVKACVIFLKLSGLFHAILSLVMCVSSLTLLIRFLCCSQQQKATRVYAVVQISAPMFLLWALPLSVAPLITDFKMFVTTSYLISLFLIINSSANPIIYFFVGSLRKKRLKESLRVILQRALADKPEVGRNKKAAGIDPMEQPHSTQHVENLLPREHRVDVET
T1 sequence (P29275 whole entry): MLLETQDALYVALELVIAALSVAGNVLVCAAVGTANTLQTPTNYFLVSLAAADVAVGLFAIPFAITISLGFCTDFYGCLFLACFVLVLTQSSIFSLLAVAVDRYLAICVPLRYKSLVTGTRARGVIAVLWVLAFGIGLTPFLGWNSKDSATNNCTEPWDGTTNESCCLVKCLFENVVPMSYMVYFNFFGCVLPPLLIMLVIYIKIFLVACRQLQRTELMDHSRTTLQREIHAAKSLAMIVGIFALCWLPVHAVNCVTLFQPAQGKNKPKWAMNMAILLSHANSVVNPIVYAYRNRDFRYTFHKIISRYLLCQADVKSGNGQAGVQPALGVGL
320 non-olfactory GPCRs (Homo sapiens, UniProt P41145), sequence (P41145 whole entry): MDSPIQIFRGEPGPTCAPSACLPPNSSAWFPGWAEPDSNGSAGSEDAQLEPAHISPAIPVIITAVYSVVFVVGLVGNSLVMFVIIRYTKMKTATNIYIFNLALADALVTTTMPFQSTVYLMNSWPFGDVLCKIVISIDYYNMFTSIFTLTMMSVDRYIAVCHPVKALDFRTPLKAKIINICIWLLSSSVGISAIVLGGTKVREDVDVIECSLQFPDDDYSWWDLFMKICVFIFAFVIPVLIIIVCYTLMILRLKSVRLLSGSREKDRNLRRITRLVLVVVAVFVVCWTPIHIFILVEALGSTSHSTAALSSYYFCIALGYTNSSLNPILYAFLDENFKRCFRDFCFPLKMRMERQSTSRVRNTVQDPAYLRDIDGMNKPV

## CCOc1cccc2cc(C(C)NCC3(O)CCCCC3)oc12 (stereo not shown) [O4LE6]
[1]
  Fold of Basal: 1.3919 and 1.763 and 1.526 and 2.198
[2]
  GPCRome agonism screen response: 0.5688 and 0.6917 and 1.207 and 0.7272
[3]
  GPCRome agonism screen response: 0.2798 and 2.137 and 1.223 and 1.286
[4]
  GPCRome agonism screen response: 1.067 and 0.797 and 0.4909 and 0.5007
